Measured values as given in ChEMBL document CHEMBL2203157, “5-(1,3-Benzothiazol-6-yl)-4-(4-methyl-1,3-thiazol-2-yl)-1H-imidazole derivatives as potent and selective transforming growth factor-β type I receptor inhibitors” (Bioorg Med Chem, 2012).
Values after ≈ are worked out from the molar mass of the structure shown.

Experiments:
[1] = Solubility of the compound by HPLC analysis; format: physicochemical
TGF-beta receptor type-1 [2] = target: T1, TGF-beta receptor type-1 (Homo sapiens, UniProt P36897); test: Inhibition of ALK5-mediated […]-induced Smad2/3 phosphorylation in human A549 cells preincubated for 2 hrs before addition of […] after 1 hr by fluorescence analysis; format: cell-based
T1 sequence (P36897 whole entry): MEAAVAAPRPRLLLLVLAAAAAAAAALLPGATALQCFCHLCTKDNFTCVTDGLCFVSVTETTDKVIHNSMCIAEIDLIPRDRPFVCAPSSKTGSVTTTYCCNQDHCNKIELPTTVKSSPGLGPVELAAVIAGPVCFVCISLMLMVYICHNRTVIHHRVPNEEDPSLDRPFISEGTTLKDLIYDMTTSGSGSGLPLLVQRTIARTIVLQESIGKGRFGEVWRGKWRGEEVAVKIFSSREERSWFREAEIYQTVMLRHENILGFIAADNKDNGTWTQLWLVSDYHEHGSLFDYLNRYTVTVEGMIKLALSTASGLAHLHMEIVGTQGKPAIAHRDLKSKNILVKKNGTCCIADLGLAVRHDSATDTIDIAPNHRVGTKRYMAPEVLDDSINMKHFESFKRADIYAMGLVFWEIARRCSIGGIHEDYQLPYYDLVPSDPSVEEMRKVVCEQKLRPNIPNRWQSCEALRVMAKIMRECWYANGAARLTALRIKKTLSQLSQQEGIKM

TGF-beta receptor type-1 [3] = target: T1, TGF-beta receptor type-1; test: Inhibition of human ALK5 using GST-tagged Smad3 as substrate assessed as substrate phosphorylation after 30 mins by ELISA
[4] = target: Vascular endothelial growth factor receptor 2 (Homo sapiens, UniProt P35968); test: Inhibition of KDR
Mus musculus [5] = test: Inhibition of ALK5-mediated Smad2 phosphorylation in skin of C57BL/6 mouse depilation model at 3% administered topically measured after 8 hrs by Western blot analysis; format: functional
Mus musculus [6] = test: Inhibition of ALK5-mediated Smad2 phosphorylation in skin of C57BL/6 mouse depilation model at 1% administered topically measured after 8 hrs by Western blot analysis; format: functional

Chain of Vascular endothelial growth factor receptor 2 (P35968 whole entry): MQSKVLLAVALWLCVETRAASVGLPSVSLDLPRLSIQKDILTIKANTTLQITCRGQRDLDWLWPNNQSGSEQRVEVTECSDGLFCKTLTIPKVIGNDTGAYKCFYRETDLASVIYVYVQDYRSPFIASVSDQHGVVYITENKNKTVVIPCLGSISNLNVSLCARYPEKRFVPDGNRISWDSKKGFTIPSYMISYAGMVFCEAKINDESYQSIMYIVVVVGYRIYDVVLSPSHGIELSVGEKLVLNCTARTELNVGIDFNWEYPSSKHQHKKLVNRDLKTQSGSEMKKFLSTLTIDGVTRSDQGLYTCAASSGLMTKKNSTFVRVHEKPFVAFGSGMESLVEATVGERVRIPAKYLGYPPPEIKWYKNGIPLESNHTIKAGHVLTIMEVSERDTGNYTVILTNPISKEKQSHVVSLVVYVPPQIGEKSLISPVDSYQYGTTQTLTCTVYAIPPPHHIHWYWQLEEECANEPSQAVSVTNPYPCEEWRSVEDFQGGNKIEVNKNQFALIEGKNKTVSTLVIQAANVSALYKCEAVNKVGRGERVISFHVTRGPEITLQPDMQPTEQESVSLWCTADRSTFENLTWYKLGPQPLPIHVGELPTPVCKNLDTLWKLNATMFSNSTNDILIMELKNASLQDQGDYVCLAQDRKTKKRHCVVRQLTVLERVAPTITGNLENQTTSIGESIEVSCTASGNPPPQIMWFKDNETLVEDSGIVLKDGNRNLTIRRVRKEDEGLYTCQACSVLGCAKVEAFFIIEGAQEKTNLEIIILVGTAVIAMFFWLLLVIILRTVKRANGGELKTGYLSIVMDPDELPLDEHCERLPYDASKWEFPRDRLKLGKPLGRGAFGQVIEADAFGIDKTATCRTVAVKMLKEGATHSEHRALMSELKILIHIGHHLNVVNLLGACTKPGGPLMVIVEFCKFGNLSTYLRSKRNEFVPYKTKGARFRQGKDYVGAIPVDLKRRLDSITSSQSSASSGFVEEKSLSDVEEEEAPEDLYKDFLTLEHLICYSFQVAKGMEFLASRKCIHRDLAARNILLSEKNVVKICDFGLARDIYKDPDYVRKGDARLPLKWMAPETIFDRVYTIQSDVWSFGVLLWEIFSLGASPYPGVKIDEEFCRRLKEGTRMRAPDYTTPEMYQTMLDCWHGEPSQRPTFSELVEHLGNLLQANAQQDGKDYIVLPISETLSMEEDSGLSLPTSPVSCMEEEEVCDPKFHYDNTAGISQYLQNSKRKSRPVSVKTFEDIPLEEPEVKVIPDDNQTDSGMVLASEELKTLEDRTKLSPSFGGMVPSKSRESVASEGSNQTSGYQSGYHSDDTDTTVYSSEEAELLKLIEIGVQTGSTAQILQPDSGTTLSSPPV

solubility [1] [mg/mL] | IC50 (TGF-beta receptor type-1 [2]) [nM] | IC50 (TGF-beta receptor type-1 [3]) [nM] | IC50 [4] [nM] | SMILES | inhibition (INH) (Mus musculus [5]) [%] | inhibition (INH) (Mus musculus [6]) [%]
18.3 (≈ 58.6 mM) | 17 | 5.8 | – | Cc1csc(-c2nc(C)[nH]c2-c2ccc3ncsc3c2)n1 | – | –
– | 130 | 26 | – | Cc1csc(-c2[nH]c(CN3CCCC3=O)nc2-c2ccc3ncsc3c2)n1 | – | –
– | 92 | 8.1 | – | Cc1csc(-c2nc(CN3CCOC3=O)[nH]c2-c2ccc3ncsc3c2)n1 | – | –
3.93 (≈ 10.2 mM) | 38 | 7.7 | – | COC(=O)NCc1nc(-c2nc(C)cs2)c(-c2ccc3ncsc3c2)[nH]1 | – | –
14.9 (≈ 43.8 mM) | 33 | 8.1 | – | CCCc1nc(-c2nc(C)cs2)c(-c2ccc3ncsc3c2)[nH]1 | – | –
– | 93 | 7.2 | – | CCNC(=O)OCc1nc(-c2nc(C)cs2)c(-c2ccc3ncsc3c2)[nH]1 | – | –
– | 72 | 13 | – | CCCCNCc1nc(-c2nc(C)cs2)c(-c2ccc3ncsc3c2)[nH]1 | – | –
– | 120 | 7 | – | CCCCCCc1nc(-c2nc(C)cs2)c(-c2ccc3ncsc3c2)[nH]1 | – | –
– | 42 | 9 | – | CCCC(=O)CCc1nc(-c2nc(C)cs2)c(-c2ccc3ncsc3c2)[nH]1 | – | –
– | 230 | 37 | – | CNC(=O)CCCc1nc(-c2nc(C)cs2)c(-c2ccc3ncsc3c2)[nH]1 | – | –
– | 130 | 11 | – | CCNC(=O)NCc1nc(-c2nc(C)cs2)c(-c2ccc3ncsc3c2)[nH]1 | – | –
– | 130 | 25 | – | CCC(=O)NCCc1nc(-c2nc(C)cs2)c(-c2ccc3ncsc3c2)[nH]1 | – | –
– | 35 | 4.5 | – | CCOC(=O)NCc1nc(-c2nc(C)cs2)c(-c2ccc3ncsc3c2)[nH]1 | – | –
– | 43 | 9 | – | Cc1csc(-c2nc(CC(C)C)[nH]c2-c2ccc3ncsc3c2)n1 | – | –
– | 71 | 12 | – | CCNC(=O)CCc1nc(-c2nc(C)cs2)c(-c2ccc3ncsc3c2)[nH]1 | – | –
23.6 (≈ 69.7 mM) | 45 | 8.8 | – | Cc1csc(-c2nc(C3CC3)[nH]c2-c2ccc3ncsc3c2)n1 | – | –
– | 190 | 8.3 | – | Cc1csc(-c2nc(CCCCC(N)=O)[nH]c2-c2ccc3ncsc3c2)n1 | – | –
– | 35 | 9 | – | CCc1nc(-c2nc(C)cs2)c(-c2ccc3ncsc3c2)[nH]1 | – | –
– | 150 | 26 | – | CC(=O)NCCCc1nc(-c2nc(C)cs2)c(-c2ccc3ncsc3c2)[nH]1 | – | –

The remaining lines, values behind:

SMILES | solubility [1] [mg/mL] | IC50 (TGF-beta receptor type-1 [2]) [nM] | IC50 (TGF-beta receptor type-1 [3]) [nM] | IC50 [4] [nM] | inhibition (INH) (Mus musculus [5]) [%] | inhibition (INH) (Mus musculus [6]) [%]
Cc1csc(-c2nc(CNC(=O)OC(C)C)[nH]c2-c2ccc3ncsc3c2)n1 | 18.2 (≈ 44 mM) | 41 | 8.6 | – | – | –
CCCCNC(=O)c1nc(-c2nc(C)cs2)c(-c2ccc3ncsc3c2)[nH]1 | – | 420 | 45 | – | – | –
CCCCCOC(=O)NCc1nc(-c2nc(C)cs2)c(-c2ccc3ncsc3c2)[nH]1 | – | 140 | 11 | – | – | –
Cc1csc(-c2nc(C3CCOCC3)[nH]c2-c2ccc3ncsc3c2)n1 | 26.1 (≈ 68.2 mM) | 99 | 21 | – | – | –
Cc1csc(-c2nc(C3CCCCC3)[nH]c2-c2ccc3ncsc3c2)n1 | > 31.8 | 75 | 12 | – | – | –
Cc1csc(-c2nc(C(F)(F)F)[nH]c2-c2ccc3ncsc3c2)n1 | 2.4 (≈ 6.55 mM) | 49 | 5.8 | – | – | –
Cc1csc(-c2nc(CNC(=O)OCC(C)(C)C)[nH]c2-c2ccc3ncsc3c2)n1 | – | 79 | 9.3 | – | – | –
Cc1csc(-c2nc(CNC(=O)OCC(C)C)[nH]c2-c2ccc3ncsc3c2)n1 | – | 36 | 5.5 | 1080 | 90 | 59
Cc1csc(-c2nc[nH]c2-c2ccc3ncsc3c2)n1 | – | 8.7 | 2.7 | – | – | –
CCCC(=O)N(C)Cc1nc(-c2ccc3ncsc3c2)c(-c2nc(C)cs2)[nH]1 | – | 110 | 28 | – | – | –
CCCOC(=O)NCc1nc(-c2nc(C)cs2)c(-c2ccc3ncsc3c2)[nH]1 | 9.8 (≈ 23.7 mM) | 36 | 7.3 | – | – | –
CCCS(=O)(=O)NCc1nc(-c2nc(C)cs2)c(-c2ccc3ncsc3c2)[nH]1 | – | 150 | 17 | – | – | –
Cc1csc(-c2nc(C(C)C)[nH]c2-c2ccc3ncsc3c2)n1 | – | 48 | 8.2 | – | – | –
CCCCOC(=O)NCc1nc(-c2nc(C)cs2)c(-c2ccc3ncsc3c2)[nH]1 | – | 74 | 9.1 | – | – | –
Cc1csc(-c2nc(C3CCNCC3)[nH]c2-c2ccc3ncsc3c2)n1 | – | – | 240 | – | – | –
Cc1csc(-c2nc(C3CCC(=O)CC3)[nH]c2-c2ccc3ncsc3c2)n1 | – | 89 | 23 | – | – | –
Cc1csc(-c2nc(C(C)(C)C)[nH]c2-c2ccc3ncsc3c2)n1 | 3.49 (≈ 9.84 mM) | 68 | 14 | – | – | –
Cc1csc(-c2nc(C3CCCC3)[nH]c2-c2ccc3ncsc3c2)n1 | 19.8 (≈ 54 mM) | 40 | 8.7 | – | – | –
